Results reported in article PMC5986738, “Thiazole Amides, A Novel Class of Algaecides against Freshwater Harmful Algae” (Scientific Reports, 2018).
Converted amounts (≈) assume the structure as drawn.

Assays:
[1] = test system: S. obliqnus; test: Algicidal activity (growth inhibition, microplate, absorbance 650 nm) against S. obliqnus; type: cell-based; conditions: 96-hour IC50, mean ± SD; for IC50: 96 h, read-out: IC50 value S. obliqnus
Procedure: (§1) According to the method established by Schrader et al.[42], algicidal activity of alkaloid (1) and its amide analogues (7–32), as well as their hydrochloric salts (7S–27S), was evaluated against three typical […] algae, S. obliqnus, M. aeruginosa, and C. Pyrenoidosa at different concentrations. After three algae species were inoculated, the variation of algae density over 7 days were recorded continuously. […] The wavelength at 650 nm was determined as ideal incident wavelength for the measurement of algae density. Three […] algae S. obliqnus, M. aeruginosa, and C. pyrenoidosa were offered by Freshwater algae culture collection of the institute of Hydrobiology (FACHB-collection). Each culture for three species was maintained separately in continuous, steady-state growth microplates, which were placed in a growth chamber held at 28 ± 1 °C and illuminated continuously under fluorescent lights at a photon flux density of […]. Absorbance values of each wells were measured by a Packard model Spectra Count microplate photometer.
(§2) Alkaloid (1) and its analogues (7–32), as well as their hydrochloric salts (7S–27S), were dissolved separately in DMSO to provide stock solution concentrations. Initially, each stock solution was aseptically pipetted into the bottom of separate wells (20 μL per well) in a 96-well microplate and the final test concentrations for each sample were 0, 0.78, 1.56, 3.12, 6.25, 12.5, and 25 μg/mL. Wells of control samples contained only unialgal culture. The solution of CuSO4 and Diuron at the same concentration were chose as the reference sample. Each experiment was performed at least three times. Through measuring the area values under the individual growth curves, the inhibitory rate (%) for the individual tested concentration was calculated according to the following equation (1):1 Ii=(Ac−Ai)/[…]×100% • Ii: inhibitory rate of biomass growth by toxicant concentration i (%) • Ac: average area under the growth curve by control sample • Ai: average area under the growth curve by test concentration i
(§3) Mean values of 96-hour IC50 were determined for each group of plates, and standard deviation were calculated and reported as the mean ± SD.
(§4) The IC50 values of all compounds against three freshwater algae species were calculated using SPSS v19.0, and the algicidal activities of alkaloid (1) and its amide analogues (7–32), as well as the corresponding hydrochloric salts (7S–27S) are listed in Table 1 and 2, respectively.

[2] = test system: C. pyrenoidosa; test: Algicidal activity (growth inhibition, microplate, absorbance 650 nm) against C. pyrenoidosa; type: cell-based, Chlorella pyrenoidosa; conditions: 96-hour IC50, mean ± SD; for IC50: Auxenochlorella pyrenoidosa, read-out: IC50 value C. pyrenoidosa
Procedure: as §1, §2, §3, §4

[3] = test system: M. aeruginosa; test: Algicidal activity (growth inhibition, microplate, absorbance 650 nm) against M. aeruginosa; type: cell-based; conditions: for IC50 value M. aeruginosa / IC50: 96-hour IC50, mean ± SD; for IC50: Microcystis aeruginosa, read-out: IC50 value M. aeruginosa; for growth inhibitory ratio: 3.13 μg/mL
Procedure: as §1, §2, §3, §4
Currently, M. aeruginosa appears to be the most harmful algae existing in the freshwater bodies in the developing countries. To investigate growth inhibitory potential of this class of thiazole amides on M. aeruginosa, thiazole amide (10) and its hydrochloric acid salt (10S) were subject to further survey for the optimal inhibition time and concentration (Figs 3 and 4). […] The variation of growth inhibitory ratios of compounds (10) and (10S) against M. aeruginosa at the lowest complete inhibition concentration is illustrated in Fig. 4. As observed, for administration of thiazole amide (10), the growth inhibitory ratios after 96 and 120 hours increase gradually to 79% and 92%, respectively. Under the same experimental conditions, growth inhibitory ratios for the salt (10S) are 82% and 88%, respectively.

| Structure (SMILES) | IC50 value S. obliqnus [1] [µg/mL] | IC50 value C. pyrenoidosa [2] [µg/mL] | IC50 value M. aeruginosa [3] [µg/mL] | IC50 [1] [µg/mL] | IC50 [2] [µg/mL] | IC50 [3] [µg/mL] | further results |
| --- | --- | --- | --- | --- | --- | --- | --- |
| COc1ccccc1NC(=O)c1csc([C@H](C)N)n1.Cl [22S] | 1.74 ± 0.24 | 0.35 ± 0.02 | 1.12 ± 0.16 |  |  |  |  |
| C[C@H](N)c1nc(C(=O)Nc2ccc(OC(F)(F)F)cc2)cs1.Cl [23S] | 4.68 ± 0.38 | 0.66 ± 0.03 | 4.45 ± 0.58 |  |  |  |  |
| C[C@H](N)c1nc(C(=O)Nc2cccc(C(F)(F)F)c2)cs1 [compound 17] |  |  |  | 9.21 ± 1.12 (≈ 29.2 µM) | 10.4 ± 0.99 (≈ 33.1 µM) | 12.2 ± 2.13 (≈ 38.7 µM) |  |
| Cc1ccccc1NC(=O)c1csc([C@H](C)N)n1 [compound 21] |  |  |  |  | 26.1 ± 3.25 (≈ 99.8 µM) | 10.1 ± 1.71 (≈ 38.5 µM) |  |
| C[C@H](N)c1nc(C(=O)Nc2cccc(Br)c2)cs1.Cl [15S] | 1.59 ± 0.16 | 2.75 ± 0.30 | 2.96 ± 0.26 |  |  |  |  |
| Cc1cccc(NC(=O)c2csc([C@H](C)N)n2)c1.Cl [16S] | 4.07 ± 0.39 | 1.82 ± 0.14 | 1.95 ± 028 |  |  |  |  |
| C[C@H](N)c1nc(C(=O)Nc2ccccc2Cl)cs1.Cl [19S] | 0.14 ± 0.02 | 2.50 ± 0.16 | 3.07 ± 0.34 |  |  |  |  |
| C[C@H](N)c1nc(C(=O)Nc2ccccc2Br)cs1.Cl [20S] | 0.68 ± 0.06 | 0.41 ± 0.04 | 1.23 ± 0.12 |  |  |  |  |
| C[C@H](N)c1nc(C(=O)Nc2cccc(Cl)c2)cs1.Cl [14S] | 2.01 ± 0.19 | 0.66 ± 0.06 | 0.79 ± 0.08 |  |  |  |  |
| CCOC(=O)c1ccc(NC(=O)c2csc([C@H](C)N)n2)cc1.Cl [26S] | 10.60 ± 1.18 | 2.38 ± 0.32 | 2.46 ± 0.23 |  |  |  |  |
| C[C@H](N)c1nc(C(=O)Nc2ccc(Br)cc2)cs1.Cl [10S] |  |  |  |  |  |  | growth inhibitory ratio ([3]; after 96 hours): 82%; growth inhibitory ratio ([3]; after 120 hours): 88% |
| O=S(=O)([O-])[O-].[Cu+2] [CuSO4, reference compound] | 0.99 ± 0.06 | 1.56 ± 0.09 | 1.29 ± 0.02 |  |  |  |  |
| C[C@H](N)c1nc(C(=O)Nc2ccc(C(F)(F)F)cc2)cs1 [compound 13] |  |  |  | 4.35 ± 0.17 (≈ 13.8 µM) | 4.58 ± 0.23 (≈ 14.5 µM) | 2.36 ± 0.12 (≈ 7.48 µM) |  |
| C[C@H](N)c1nc(C(=O)Nc2ccccc2F)cs1 [compound 18] |  |  |  | 3.95 ± 0.92 (≈ 14.9 µM) | 3.41 ± 0.14 (≈ 12.9 µM) | 2.55 ± 0.19 (≈ 9.61 µM) |  |
| C[C@H](N)c1nc(C(=O)Nc2ccccc2Br)cs1 [compound 20] |  |  |  | 3.31 ± 0.13 (≈ 10.1 µM) | 2.84 ± 0.93 (≈ 8.71 µM) | 8.79 ± 1.23 (≈ 26.9 µM) |  |
| C[C@H](N)c1nc(C(=O)Nc2ccc(F)cc2)cs1.Cl [8S] | 1.14 ± 0.09 | 2.69 ± 0.23 | 3.00 ± 0.12 |  |  |  |  |
| CC(N)c1nc(C(=O)Nc2ccccn2)cs1 (centres unmarked) [compound 28] | 3.97 ± 0.17 (≈ 16 µM) | 14.76 ± 1.26 (≈ 59.4 µM) | 3.09 ± 0.15 (≈ 12.4 µM) |  |  |  |  |
| C[C@H](N)c1nc(C(=O)Nc2ccccc2F)cs1.Cl [18S] | 1.12 ± 0.09 | 0.27 ± 0.09 | 0.26 ± 0.01 |  |  |  |  |
| Cc1cc(NC(=O)c2csc([C@H](C)N)n2)ccc1F [compound 25] |  |  |  | 1.81 ± 0.07 (≈ 6.48 µM) | 5.1 ± 0.13 (≈ 18.3 µM) | 6.73 ± 1.21 (≈ 24.1 µM) |  |
| Cc1cccc(NC(=O)c2csc([C@H](C)N)n2)c1 [compound 16] |  |  |  | 2.86 ± 0.14 (≈ 10.9 µM) | 7.18 ± 0.05 (≈ 27.5 µM) | 24.2 ± 3.12 (≈ 92.4 µM) | melting point: 135 to 137 °C |
| C[C@H](N)c1nc(C(=O)Nc2ccc(Cl)cc2)cs1 [compound 9] |  |  |  | 4.12 ± 0.13 (≈ 14.6 µM) | 1.37 ± 0.12 (≈ 4.86 µM) | 2.19 ± 0.09 (≈ 7.77 µM) |  |
